Reference: publication PMC7720687 (ERJ Open Research, 2020)

How the values were obtained:
[1] = molecular target: T1, epithelial sodium channel (ENaC) (Homo sapiens, UniProt P37088+P51168+P51170); test: Ussing chamber, amiloride-sensitive short-circuit current in NCI-H441 monolayers; format: cell-based
T1 sequence (P37088 1-669): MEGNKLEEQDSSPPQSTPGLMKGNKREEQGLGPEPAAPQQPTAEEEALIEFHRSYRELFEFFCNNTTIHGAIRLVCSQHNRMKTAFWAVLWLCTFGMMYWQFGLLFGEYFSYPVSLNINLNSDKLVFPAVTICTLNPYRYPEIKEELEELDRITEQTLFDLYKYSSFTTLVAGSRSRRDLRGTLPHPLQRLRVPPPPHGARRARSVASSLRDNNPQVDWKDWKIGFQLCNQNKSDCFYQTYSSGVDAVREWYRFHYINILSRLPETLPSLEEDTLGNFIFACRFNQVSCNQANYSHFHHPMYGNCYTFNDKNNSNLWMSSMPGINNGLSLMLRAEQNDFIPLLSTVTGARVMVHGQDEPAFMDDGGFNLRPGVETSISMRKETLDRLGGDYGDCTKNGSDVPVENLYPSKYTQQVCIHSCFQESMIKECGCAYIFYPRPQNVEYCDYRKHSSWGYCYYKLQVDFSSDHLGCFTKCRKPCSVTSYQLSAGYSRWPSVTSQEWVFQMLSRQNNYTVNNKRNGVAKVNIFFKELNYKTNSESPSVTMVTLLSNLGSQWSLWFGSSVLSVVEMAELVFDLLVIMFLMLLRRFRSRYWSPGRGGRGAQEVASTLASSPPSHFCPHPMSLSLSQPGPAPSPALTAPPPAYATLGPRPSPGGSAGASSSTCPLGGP
T1 sequence (P51168 1-640): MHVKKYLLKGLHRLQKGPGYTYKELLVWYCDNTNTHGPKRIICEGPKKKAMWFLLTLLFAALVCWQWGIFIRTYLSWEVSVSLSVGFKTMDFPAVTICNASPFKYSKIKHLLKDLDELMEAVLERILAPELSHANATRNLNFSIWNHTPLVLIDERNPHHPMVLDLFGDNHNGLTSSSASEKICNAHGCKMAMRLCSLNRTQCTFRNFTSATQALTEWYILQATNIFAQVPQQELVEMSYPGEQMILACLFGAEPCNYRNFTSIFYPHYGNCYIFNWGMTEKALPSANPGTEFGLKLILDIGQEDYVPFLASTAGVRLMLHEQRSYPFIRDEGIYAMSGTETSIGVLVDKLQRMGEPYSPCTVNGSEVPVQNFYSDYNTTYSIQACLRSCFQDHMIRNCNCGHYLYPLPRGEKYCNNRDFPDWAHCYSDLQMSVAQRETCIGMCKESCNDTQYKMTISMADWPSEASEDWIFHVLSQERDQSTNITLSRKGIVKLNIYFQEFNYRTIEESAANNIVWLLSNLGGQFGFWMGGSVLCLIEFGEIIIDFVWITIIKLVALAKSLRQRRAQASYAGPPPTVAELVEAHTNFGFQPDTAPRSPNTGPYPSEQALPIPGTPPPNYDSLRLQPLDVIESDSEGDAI
T1 sequence (P51170 1-649): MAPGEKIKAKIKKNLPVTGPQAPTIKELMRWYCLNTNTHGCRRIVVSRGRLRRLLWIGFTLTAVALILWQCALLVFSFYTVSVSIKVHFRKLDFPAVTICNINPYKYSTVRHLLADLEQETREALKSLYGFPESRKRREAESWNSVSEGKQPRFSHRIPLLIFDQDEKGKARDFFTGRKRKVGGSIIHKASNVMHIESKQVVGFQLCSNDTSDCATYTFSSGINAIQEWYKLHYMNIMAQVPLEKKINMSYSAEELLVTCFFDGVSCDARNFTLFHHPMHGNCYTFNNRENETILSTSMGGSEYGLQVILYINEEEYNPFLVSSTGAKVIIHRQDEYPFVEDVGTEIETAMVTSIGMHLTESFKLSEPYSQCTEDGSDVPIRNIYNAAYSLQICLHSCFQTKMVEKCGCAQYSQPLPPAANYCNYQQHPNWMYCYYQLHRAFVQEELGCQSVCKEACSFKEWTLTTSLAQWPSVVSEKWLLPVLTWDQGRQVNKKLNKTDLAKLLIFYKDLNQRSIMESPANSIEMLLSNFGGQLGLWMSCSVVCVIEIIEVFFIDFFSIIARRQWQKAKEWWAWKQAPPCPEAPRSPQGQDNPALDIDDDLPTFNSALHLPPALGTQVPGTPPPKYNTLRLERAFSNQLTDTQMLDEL

[2] = molecular target: T2, epithelial sodium channel (ENaC) (Mus musculus, UniProt Q61180+Q9WU38+Q9WU39); test: Ussing chamber, amiloride-sensitive short-circuit current in M1 monolayers; format: cell-based
T2 sequence (Q61180 1-699): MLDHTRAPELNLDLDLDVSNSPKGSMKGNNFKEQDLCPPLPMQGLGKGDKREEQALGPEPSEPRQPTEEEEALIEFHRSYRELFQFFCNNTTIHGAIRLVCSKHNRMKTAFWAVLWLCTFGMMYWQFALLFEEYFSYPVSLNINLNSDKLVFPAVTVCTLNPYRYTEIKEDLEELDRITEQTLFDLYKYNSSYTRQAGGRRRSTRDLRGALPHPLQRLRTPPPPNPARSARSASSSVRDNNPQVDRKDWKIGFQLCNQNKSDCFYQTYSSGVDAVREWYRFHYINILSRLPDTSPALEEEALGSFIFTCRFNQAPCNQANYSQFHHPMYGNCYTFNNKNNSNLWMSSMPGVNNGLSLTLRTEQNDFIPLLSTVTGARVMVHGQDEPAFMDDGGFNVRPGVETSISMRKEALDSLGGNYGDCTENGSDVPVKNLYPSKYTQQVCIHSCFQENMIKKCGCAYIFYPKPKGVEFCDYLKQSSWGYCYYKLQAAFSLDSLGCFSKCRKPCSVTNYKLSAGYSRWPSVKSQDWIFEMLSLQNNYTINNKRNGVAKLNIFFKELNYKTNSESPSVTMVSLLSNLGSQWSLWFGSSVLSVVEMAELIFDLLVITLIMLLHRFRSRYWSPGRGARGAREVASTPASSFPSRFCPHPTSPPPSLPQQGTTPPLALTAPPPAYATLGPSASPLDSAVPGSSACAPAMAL
T2 sequence (Q9WU38 1-638): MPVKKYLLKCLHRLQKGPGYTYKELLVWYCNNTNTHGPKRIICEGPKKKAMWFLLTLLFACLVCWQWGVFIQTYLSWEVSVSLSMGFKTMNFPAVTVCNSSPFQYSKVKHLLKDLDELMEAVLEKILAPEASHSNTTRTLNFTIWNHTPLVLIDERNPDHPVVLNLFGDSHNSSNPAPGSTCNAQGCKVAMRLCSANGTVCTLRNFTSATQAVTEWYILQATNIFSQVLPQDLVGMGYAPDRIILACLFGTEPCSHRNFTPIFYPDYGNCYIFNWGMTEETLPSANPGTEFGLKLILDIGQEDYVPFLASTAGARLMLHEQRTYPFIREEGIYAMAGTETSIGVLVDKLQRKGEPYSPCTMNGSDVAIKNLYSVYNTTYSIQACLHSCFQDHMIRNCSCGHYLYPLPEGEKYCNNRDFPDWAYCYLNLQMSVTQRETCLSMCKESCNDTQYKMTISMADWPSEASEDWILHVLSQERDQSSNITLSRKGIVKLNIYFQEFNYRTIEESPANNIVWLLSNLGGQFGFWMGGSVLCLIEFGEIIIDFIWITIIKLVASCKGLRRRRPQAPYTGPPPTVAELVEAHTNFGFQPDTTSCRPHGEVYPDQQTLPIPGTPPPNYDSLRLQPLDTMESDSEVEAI
T2 sequence (Q9WU39 1-655): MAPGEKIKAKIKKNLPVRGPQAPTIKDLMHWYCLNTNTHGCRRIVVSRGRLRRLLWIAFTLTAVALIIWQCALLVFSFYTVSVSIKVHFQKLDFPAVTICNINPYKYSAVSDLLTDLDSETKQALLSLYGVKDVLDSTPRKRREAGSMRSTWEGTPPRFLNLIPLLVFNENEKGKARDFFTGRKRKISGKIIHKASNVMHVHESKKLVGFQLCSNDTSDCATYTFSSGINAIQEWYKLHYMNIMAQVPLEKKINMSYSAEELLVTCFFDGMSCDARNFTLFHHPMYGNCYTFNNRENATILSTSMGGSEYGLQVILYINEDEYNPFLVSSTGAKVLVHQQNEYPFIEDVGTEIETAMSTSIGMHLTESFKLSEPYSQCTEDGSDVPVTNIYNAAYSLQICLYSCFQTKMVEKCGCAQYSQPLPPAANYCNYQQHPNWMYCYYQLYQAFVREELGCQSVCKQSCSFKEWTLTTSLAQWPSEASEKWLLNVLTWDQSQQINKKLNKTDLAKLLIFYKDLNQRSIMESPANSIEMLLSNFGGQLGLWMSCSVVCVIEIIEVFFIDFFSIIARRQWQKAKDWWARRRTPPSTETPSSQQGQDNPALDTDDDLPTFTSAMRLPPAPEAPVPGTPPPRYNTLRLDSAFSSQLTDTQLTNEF

BI 1265162
IC50 [1]: 8 nM
IC50 [2]: 3 nM
